# From US6069172A, “(R)-2-(3-benzoylphenyl) propionic acid salts and pharmaceutical preparations containing them” (priority 1998, dated 2000)
# Counter-ions that a name gives are not always drawn. Like-named read-outs stand apart in the source and are kept apart here.
# What was measured:
# PMN neutrophils = details: FLMP-stimulated vs other agonist-stimulated; cited from earlier work
# neutrophil = details: Ca^++ ionophore and FLMP; cited from earlier work
# MCP-1 and IL-8 release = details: comparative study; cited from earlier work
# human PMN leukocytes = experiment: [Ca^++ ]i increase induced by IL-8 in human PMN leukocytes; assay type: cell-based; details: IL-8 50 ng/ml, % of basal [Ca^++ ]i (basal 100%), no drug 302 ± 11
# Procedure: The results reported in Table 1 are cumulative data obtained from 8 trials (8 donors who gave their explicit consent, 3 to 7 cells per specimen). […] The responses, expressed as percent of basal value of [Ca^++ ]i, are the mean from all responsive cells; standard error of the mean (±SEM) and number of replications (in brackets) are also reported. […] IL-8 concentration was 50 ng/ml.
# human PMN neutrophils [1] = experiment: [Ca^++ ]i increase induced by FMLP in human PMN neutrophils; assay type: cell-based; details: FLMP 10^-7 M; % of basal (100%); no treatment 208 ± 7
# Text: (§1) Results are expressed as percent of the basal value of [Ca^++ ]i and are the mean from the values of all responsive cells. Standard error of the mean (SEM) and number of replications (n, in brackets) are also reported.
# oedema formation [2] = details: for inhibition of oedema formation: 25 to 750 mmoles/kg
# Neutrophils = details: 10^-6 M, 10 min 37° C; FIG. 2, ** p<0.01
# Text: Results are expressed as the mean ±SD from 3 separated trials (** p<0.01 against each group).
# [3] = system: Ca^++ channels, human PMN neutrophils; experiment: competition study with lanthanum ions: [Ca^++ ]i increase induced by IL-8, role of Ca^++ channels; assay type: cell-based; details: ketoprofen L-lysine salt 10^-8 M; La^+++ 10 μM; IL-8 50 ng/ml; % of basal (100%)
# Procedure: Results reported in Table 2 are the cumulative values from 3 trials (3 donors, 3-7 cells per specimen). […] Responses are expressed as percent of basal [Ca^++ ]i value and are the mean from the values of all responsive cells. Standard error of the mean (SEM) and number of replications (in brackets) are also reported. […] The concentration of ketoprofen L-lysine salt was 10^-8 M, that of La^+++ 10 μM, and that of IL-8 50 ng/ml.
# human PMN neutrophils [4] = experiment: IL-8-stimulated human PMN neutrophil degranulation (elastase release), FIG. 1; assay type: cell-based; details: IL-8 50 ng/ml, cytoclasin B 10^-5 M, 30 min 37° C; FIG. 1, ** p<0.05 against IL-8
# Procedure: Human PMN neutrophils (10^7 /ml) were stimulated in the presence of cytoclasin B (10^-5 M) by adding IL-8 (50 ng/ml) and incubating them for 30 min at 37° C. La^+++ was added 5 min before IL-8 and the lysine salts of (R)- and (S)-ketoprofen 15 min before IL-8. Degranulation was evaluated based on the amount of elastase released in the cell-free surnatant and is expressed as DOD×10^3 /min.
# human PMN neutrophils [5] = experiment: [Ca^++ ]i increase induced by C5a in human PMN neutrophils; assay type: cell-based; details: for C5a [Ca^++ ]i (% ± SEM): C5a 10^-8 M, % of basal (100%), no treatment 198 ± 10; for percent of non responsive cells: C5a stimulation and treatment with the L-lysine salts
# Text: as §1
# [6] = gastric ulcer-inducing properties in rats (ulcer score); assay type: in vivo; details: rat; for ulcer score: 40 mmoles/kg
# Text: Guinea-pigs are a species naturally resistant to the gastrolesive action of NSAIDs, so that it is not possible to compare the two enantiomers in respect to this parameter in this species, unless using very high doses, having no predictive value. To this purpose, rats are necessarily, again, the chosen species, although the least suitable. […] The differences among the enantiomers and the racemate were statistically significant starting from the dose of […]: at this dose an "ulcer score" of 2 was evaluated for the (R) enantiomer, compared with "ulcer scores" of 3 and 4 for the racemate and the (S) enantiomer, respectively.
# hyperalgesia = experiment: animal or person; details: for inhibitory effect on hyperalgesia: 25 to 750 mmoles/kg
# Text: In order to predict the therapeutic effect of the racemates in men, it is necessary to know how much the single enantiomers contribute to the global activity, using experimental models excluding metabolic bio-conversion. […] This model allows the contemporary evaluation of the inhibition of oedema formation and of hyperalgesia.
# oedema formation [7] = experiment: animal or person; details: Cavia porcellus, read-out: dose from which oedema inhibition is statistically significant
# [8] = system: mouse peritoneal macrophages; experiment: lipopolysaccharide-stimulated IL-1b release from mouse peritoneal macrophages; assay type: cell-based; details: for minimal effective concentration: Mus musculus, Peritoneal macrophage, read-out: concentration of statistically significant stimulation of IL-1b formation
# [9] = system: interleukin IL-8 production; details: reduced from 53.8 pg/ml, p<0.1, cited from earlier work
# TXB2 synthesis = TXB2 synthesis inhibition in human blood; assay type: cell-based; details: index of platelet antiaggregating properties
# [10] = system: ultra-violet radiation-induced epidermal erythema; details: topic; guinea pigs; cited from earlier work
# [11] = men, cited from earlier work
# [12] = guinea-pigs; cited from earlier work
# [13] = rats; in words; cited from earlier work
# pain perception = details: men; compared with (S) enantiomers; cited from earlier work
# [14] = system: carrageenin-induced pleural exudate; PMN cell migration; details: oral, cited from earlier work; for migration of cells into the pleural cavity: PMN cells vs monocytes, thought in 1975
# human synovial cells = details: stimulated by interleukin-1 and TNF-a; cited from earlier work
# [15] = system: mouse peritoneal macrophages; experiment: lipopolysaccharide-stimulated TNF-a release from mouse peritoneal macrophages; assay type: cell-based; details: LPS-stimulated; 10^-9 -10^-5 M
structure (smiles),measurement,setting,value
"CC(C)C[C@H](NC(=O)OCC1c2ccccc2-c2ccccc21)C(=O)O [NPC-15669, N-Fmoc-L-leucine]",[Ca^++ ]i increase in PMN neutrophils,PMN neutrophils,"inhibited FLMP-stimulated, but not other agonist-stimulated [Ca^++ ]i increase"
O=C(O)c1ccccc1Nc1cccc(C(F)(F)F)c1 [flufenamic acid],inhibition of neutrophil activation / blockade of Ca^++ ion entry,neutrophil,inhibition of neutrophil activation
COC(=O)C1=C(C)NC(C)=C(C(=O)OC)C1c1ccccc1[N+](=O)[O-] [nifedipine],inhibition of neutrophil activation / blockade of Ca^++ ion entry,neutrophil,completely inactive
C[C@@H]1C[C@H]2[C@@H]3CCC4=CC(=O)C=C[C@]4(C)[C@@]3(F)[C@@H](O)C[C@]2(C)[C@@]1(O)C(=O)CO [dexamethasone],inhibition of release of MCP-1 and IL-8,MCP-1 and IL-8 release,in an optimal manner
C[C@H](C(=O)O)c1cccc(C(=O)c2ccccc2)c1 [(S)-ketoprofen L-lysine salt],[Ca^++ ]i (% ± SEM),human PMN leukocytes; drug 10^-6 M,163 ± 18%
same,[Ca^++ ]i (% ± SEM),human PMN leukocytes; drug 10^-7 M,199 ± 13%
same,[Ca^++ ]i (% ± SEM),human PMN leukocytes; drug 10^-8 M,183 ± 5%
same,[Ca^++ ]i (% ± SEM),human PMN leukocytes; drug 10^-9 M,289 ± 19%
same,FMLP [Ca^++ ]i (% ± SEM),human PMN neutrophils [1],214 ± 13%
same,dose of maximal effect on oedema formation,oedema formation [2]; dose range 25 to 750 mmoles/kg,250 mmol/kg
same,inhibitory effect on IL-8-stimulated chemotactic migration,Neutrophils,specific inhibitory effects
same,La^+++ + IL-8 [Ca^++ ]i (% ± SEM),[3],166 ± 7%
same,inhibitory effect on human PMN neutrophil degranulation (elastase release),human PMN neutrophils [4],specific inhibitory effects
same,C5a [Ca^++ ]i (% ± SEM),human PMN neutrophils [5],150 ± 4%
same,percent of non responsive cells,human PMN neutrophils [5],50%
same,ulcer score,[6],4
same,inhibitory effect on hyperalgesia,hyperalgesia,only a slight inhibitory effect on hyperalgesia
same,minimal effective dose,"hyperalgesia; Cavia porcellus, read-out: dose with statistically significant inhibition of hyperalgesia",750000 µmol/kg
same,minimal effective dose,oedema formation [7],75000 µmol/kg
same,minimal effective concentration,[8],10 µM
CC(C(=O)O)c1cccc(C(=O)c2ccccc2)c1 (racemic) [racemic ketoprofen],interleukin IL-8 production,[9]; 100 mg/kg,16.9 pg/mL
same,interleukin IL-8 production,[9]; 200 mg/kg,22.4 pg/mL
same,IC50,TXB2 synthesis,420 ± 40 µM
same,"Protection, UV radiation-induced epidermal erythema",[10],56.1±3.1%
"C[C@@H](C(=O)O)c1ccc(-c2ccccc2)c(F)c1 [(R)-flurbiprofen, 3-fluoro-4-phenylhydratropic acid]",conversion of (R) into (S) enantiomer,[11],< 5%
same,conversion of (R) into (S) enantiomer,[12],< 5%
same,conversion of (R) into (S) enantiomer,[13],completely converted
same,inhibition of pain perception,pain perception,efficacy at least similar to that of the (S) enantiomers
CC(C(=O)O)c1cccc(Oc2ccccc2)c1 (stereo not drawn) [fenofren],migration of cells into the pleural cavity,[14],"inhibit the migration of PMN cells, but not that of monocytes"
same,carrageenin-induced formation of pleural exudate,[14],inhibited
C[C@H](C(=O)O)c1cccc(C(=O)c2ccccc2)c1 [(S)-ketoprofen],IC50,TXB2 synthesis,160 ± 40 µM
same,"Protection, UV radiation-induced epidermal erythema",[10],73.4±4.0%
CC(C(=O)O)c1cccc(C(=O)c2ccccc2)c1 (racemic) [racemic ketoprofen L-lysine salt],inhibition of oedema formation,oedema formation [2],constantly intermediate between those evaluated for the two enantiomers
same,ulcer score,[6],3
same,inhibitory effect on hyperalgesia,hyperalgesia,constantly intermediate between those evaluated for the two enantiomers
same,minimal effective concentration,[8],10 µM
"CC(C)Cc1ccc([C@@H](C)C(=O)O)cc1 [(R)-ibuprofen, p-isobutylhydratropic acid]",conversion of (R) into (S) enantiomer,[11]; in words,nearly completely converted
same,conversion of (R) into (S) enantiomer,[13],nearly completely converted
Cc1c(Cl)cccc1Nc1ccccc1C(=O)O [tolfenamic acid],inhibition of neutrophil activation / blockade of Ca^++ ion entry,neutrophil,inhibition of neutrophil activation
COc1ccc2cc([C@H](C)C(=O)O)ccc2c1 [naproxen],IL-8 production in human synovial cells,human synovial cells,not inhibited
CC(C(=O)O)c1ccc(C(=O)c2ccccc2)s1 (stereo not drawn) [thioprofenic acid],IL-8 production in human synovial cells,human synovial cells,not inhibited
COc1ccc2c(c1)c(CC(=O)O)c(C)n2C(=O)c1ccc(Cl)cc1 [indomethacin],migration of cells into the pleural cavity,[14],"inhibit the migration of PMN cells, but not that of monocytes"
same,carrageenin-induced formation of pleural exudate,[14],inhibited
same,IL-8 production in human synovial cells,human synovial cells,not inhibited
"C[C@@H](C(=O)O)c1cccc(C(=O)c2ccccc2)c1 [(R)-ketoprofen L-lysine salt, (R)-2-(3-benzoylphenyl)propionic acid]",[Ca^++ ]i (% ± SEM),human PMN leukocytes; drug 10^-6 M,182 ± 15%
same,[Ca^++ ]i (% ± SEM),human PMN leukocytes; drug 10^-7 M,193 ± 10%
same,[Ca^++ ]i (% ± SEM),human PMN leukocytes; drug 10^-8 M,188 ± 8%
same,[Ca^++ ]i (% ± SEM),human PMN leukocytes; drug 10^-9 M,364 ± 29%
same,FMLP [Ca^++ ]i (% ± SEM),human PMN neutrophils [1],193 ± 6%
same,inhibition of oedema formation,oedema formation [2],significantly inhibited oedema formation
same,effect on TNF-a release,[15],completely ineffective
same,inhibitory effect on IL-8-stimulated chemotactic migration,Neutrophils,specific inhibitory effects
same,La^+++ + IL-8 [Ca^++ ]i (% ± SEM),[3],176 ± 7%
same,inhibitory effect on human PMN neutrophil degranulation (elastase release),human PMN neutrophils [4],specific inhibitory effects
same,C5a [Ca^++ ]i (% ± SEM),human PMN neutrophils [5],153 ± 4%
same,percent of non responsive cells,human PMN neutrophils [5],50%
same,ulcer score,[6],2
same,ulcer-inducing properties,[6]; compared with (S) enantiomer,less ulcer-inducing properties
same,inhibitory effect on hyperalgesia,hyperalgesia,"marked, dose-dependent inhibitory effect on hyperalgesia"
same,"doses with marked, dose-dependent inhibition of hyperalgesia",hyperalgesia; maximal at the highest dose,75 to 250 mmol/kg
same,minimal effective dose,oedema formation [7],250000 µmol/kg
same,effect on IL-1b release,"[8]; LPS-stimulated, 10^-9 -10^-5 M",completely ineffective
"CC(C(=O)O)c1ccc(-c2ccccc2)c(F)c1 (racemic) [flurbiprofen, 3-fluoro-4-phenylhydratropic acid]",migration of cells into the pleural cavity,[14],"inhibit the migration of PMN cells, but not that of monocytes"
same,carrageenin-induced formation of pleural exudate,[14],inhibited
CN1C(C(=O)Nc2nccs2)=C(O)c2ccccc2S1(=O)=O [sudoxicam],migration of cells into the pleural cavity,[14],"inhibit the migration of PMN cells, but not that of monocytes"
same,carrageenin-induced formation of pleural exudate,[14],inhibited
CN(Cc1cnc2nc(N)nc(N)c2n1)c1ccc(C(=O)N[C@@H](CCC(=O)O)C(=O)O)cc1 [metotrexate],inhibition of release of MCP-1 and IL-8,MCP-1 and IL-8 release,in a sub-optimal manner
CN1C(C(=O)Nc2ccccn2)=C(O)c2ccccc2S1(=O)=O [piroxicam],IL-8 production in human synovial cells,human synovial cells,not inhibited
O=C([O-])CC(S)C(=O)[O-].[Na+].[Na+] (stereo not drawn) [sodium thiomalate],inhibition of release of MCP-1 and IL-8,MCP-1 and IL-8 release,in a sub-optimal manner
